Measured values published in ChEMBL document CHEMBL3727368, “Thienopyrimidine inhibitors of atypical protein kinase C” (2013).

biological target: T1, Protein kinase C iota type (Homo sapiens, UniProt P41743); assay: Inhibition of recombinant full-length human PKC-iota expressed in Sf21 cells using FAM-PKCs pseudopeptide derived peptide substrate and 150 uM ATP by fluorescence polarization based IMAP assay
T1 sequence (P41743 whole entry): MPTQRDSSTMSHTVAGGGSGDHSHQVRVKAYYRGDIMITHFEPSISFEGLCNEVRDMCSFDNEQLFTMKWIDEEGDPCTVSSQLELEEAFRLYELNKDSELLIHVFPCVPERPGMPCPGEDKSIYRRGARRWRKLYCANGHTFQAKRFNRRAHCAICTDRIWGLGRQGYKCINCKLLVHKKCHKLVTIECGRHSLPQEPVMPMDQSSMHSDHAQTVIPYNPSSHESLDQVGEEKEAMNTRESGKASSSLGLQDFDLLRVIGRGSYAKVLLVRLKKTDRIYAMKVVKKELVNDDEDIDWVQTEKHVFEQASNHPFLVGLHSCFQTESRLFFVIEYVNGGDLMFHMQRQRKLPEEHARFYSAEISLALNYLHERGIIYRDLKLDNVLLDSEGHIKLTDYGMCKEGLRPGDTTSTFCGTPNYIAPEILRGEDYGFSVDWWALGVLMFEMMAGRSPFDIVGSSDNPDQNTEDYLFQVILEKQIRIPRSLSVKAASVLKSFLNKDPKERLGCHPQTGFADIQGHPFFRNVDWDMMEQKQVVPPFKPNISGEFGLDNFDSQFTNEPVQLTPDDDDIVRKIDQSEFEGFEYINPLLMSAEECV

Row | IC50 [nM] | Structure (SMILES)
1 | < 100 | N[C@H](CNc1nc(-c2ccncc2)nc2c(-c3ccn[nH]3)csc12)Cc1ccccc1
2 | < 100 | C[C@@H](F)C#Cc1csc2c(NC[C@@H](N)Cc3ccccc3)nc(-c3ccncc3)nc12
3 | < 100 | N[C@H](CNc1nc(-c2ccncc2)nc2c(C#CC3CC3)csc12)Cc1ccccc1
4 | < 100 | N[C@H](CNc1nc(-c2ccncc2)nc2c(-c3cn[nH]n3)csc12)Cc1ccccc1
5 | < 100 | N[C@H](CNc1nc(-c2ccncc2)nc2c(Cl)csc12)Cc1ccccc1
6 | < 100 | Cc1sc2c(NC[C@@H](N)Cc3ccccc3)nc(-c3ccncc3)nc2c1-c1ccn[nH]1
7 | < 100 | N[C@H](CNc1nc(-c2ccncc2)nc2c(Br)csc12)Cc1ccccc1
8 | < 100 | N[C@H](CNc1nc(-c2ccncc2)nc2c(Nc3ccccn3)csc12)Cc1ccccc1
9 | < 100 | N[C@H](CNc1nc(-c2ccncc2F)nc2c(C#CCO)csc12)Cc1ccccc1
10 | < 100 | CC(O)C#Cc1csc2c(NC[C@@H](N)Cc3ccccc3)nc(-c3ccncc3)nc12 (stereo partly drawn)
11 | ≥ 10000 | CC(C)(C)OC(=O)N1CCc2c(sc3nc(-c4ccncc4)nc(NCCN)c23)C1
12 | < 100 | C[C@H](O)C#Cc1csc2c(NC[C@@H](N)Cc3ccccc3)nc(-c3ccncc3)nc12
13 | ≥ 10000 | N[C@H](CNc1nc(-c2ccncc2)nc2c(NC(=O)C3CCCC3)csc12)Cc1ccccc1
14 | < 100 | N[C@H](CNc1nc(-c2ccncc2)nc2c(C#CC3(O)CCC3)csc12)Cc1ccccc1
15 | < 100 | C#Cc1csc2c(NC[C@@H](N)Cc3ccccc3)nc(-c3ccncc3)nc12
16 | < 100 | C=Cc1csc2c(NC[C@@H](N)Cc3ccccc3)nc(-c3ccncc3)nc12
17 | < 100 | COCC#Cc1csc2c(NC[C@@H](N)Cc3ccccc3)nc(-c3ccncc3)nc12
18 | < 100 | c1cc(-c2nc(N[C@@H]3CCNC3)c3scc(-c4ccn[nH]4)c3n2)ccn1
19 | < 100 | Cc1cc(-c2csc3c(NC[C@@H](N)Cc4ccccc4)nc(-c4ccncc4)nc23)n[nH]1
20 | ≥ 1000 | CC(C)S(=O)(=O)c1cccc(Nc2cc(-c3nc(N[C@@H]4CCNC4)c4sccc4n3)ccn2)c1
21 | < 100 | N[C@H](CNc1nc(-c2ccncc2)nc2sc3c(c12)CCCC3)Cc1ccccc1O
22 | < 100 | N[C@H](CNc1nc(-c2ccncc2)nc2c(/C=C/C3CC3)csc12)Cc1ccccc1
23 | < 100 | CC[C@H](O)C#Cc1csc2c(NC[C@@H](N)Cc3ccccc3)nc(-c3ccncc3)nc12
24 | < 100 | N[C@H](CNc1nc(-c2ccncc2)nc2c(Nc3ccon3)csc12)Cc1ccccc1
25 | < 100 | N[C@H](CNc1nc(-c2ccncc2)nc2c(C#CC3(O)CC3)csc12)Cc1ccccc1

Row | IC50 [nM] | Structure (SMILES)
26 | < 100 | CC(C)(O)C#Cc1csc2c(NC[C@@H](N)Cc3ccccc3)nc(-c3ccncc3)nc12
27 | < 100 | N[C@H](CNc1nc(-c2ccncc2F)nc2c(Br)csc12)Cc1ccccc1
28 | < 100 | C[C@H](O)C#Cc1csc2c(N[C@@H]3CCNC3)nc(-c3ccncc3)nc12
29 | ≥ 10000 | F[C@H]1NCC[C@H]1Nc1nc(-c2ccncc2)nc2ccsc12
30 | < 100 | CNC(=O)c1csc2c(NC[C@@H](N)Cc3ccccc3)nc(-c3ccncc3)nc12
31 | < 100 | N[C@H](CNc1nc(-c2ccncc2)nc2c(C#CCF)csc12)Cc1ccccc1
32 | < 100 | N[C@H](CNc1nc(-c2ccncc2F)nc2c(-c3cc[nH]n3)csc12)Cc1ccccc1
33 | ≥ 10000 | N[C@H](CNc1nc(-c2ccncc2)nc2c(-c3ccccc3Cl)c(C(F)(F)F)sc12)Cc1ccccc1
34 | < 100 | CC(O)CC#Cc1csc2c(NC[C@@H](N)Cc3ccccc3)nc(-c3ccncc3)nc12 (stereo partly drawn)
35 | < 100 | N[C@H](CNc1nc(-c2ccncc2)nc2c(C#CCO)csc12)Cc1ccccc1
36 | < 100 | C[C@@H](O)C#Cc1csc2c(NC[C@@H](N)Cc3ccccc3)nc(-c3ccncc3)nc12
37 | < 100 | N[C@H](CNc1nc(-c2ccncc2)nc2c(C#CC3(O)CCCC3)csc12)Cc1ccccc1
38 | < 100 | N[C@H](CNc1nc(-c2ccncc2)nc2c(C#Cc3cc[nH]n3)csc12)Cc1ccccc1
39 | < 100 | N[C@H](CNc1nc(-c2ccncc2)nc2c(C#CCCO)csc12)Cc1ccccc1
40 | < 100 | CCc1cc(-c2csc3c(NC[C@@H](N)Cc4ccccc4)nc(-c4ccncc4)nc23)[nH]n1
41 | ≥ 1000 | CCC[C@@H](O)[C@H](O)C#Cc1csc2c(NC[C@@H](N)Cc3ccccc3)nc(-c3ccncc3)nc12
42 | ≤ 1000 | N[C@H](CNc1nc(-c2ccncc2)nc2c(/C=C/C(=O)O)csc12)Cc1ccccc1
43 | < 100 | Cc1sc2c(NC[C@@H](N)Cc3ccccc3)nc(-c3ccncc3)nc2c1Br
44 | < 100 | Brc1csc2c(N[C@@H]3CCNC3)nc(-c3ccncc3)nc12
45 | < 100 | N[C@H](CNc1nc(-c2ccncc2)nc2c(C3CC3)csc12)Cc1ccccc1
46 | < 100 | C/C=C\c1csc2c(NC[C@@H](N)Cc3ccccc3)nc(-c3ccncc3)nc12
47 | < 100 | N#Cc1csc2c(NC[C@@H](N)Cc3ccccc3)nc(-c3ccncc3)nc12
48 | < 100 | Cc1sc2c(NC[C@@H](N)Cc3ccccc3)nc(-c3ccncc3)nc2c1C#CC(C)(C)O
49 | < 100 | CC#Cc1csc2c(NC[C@@H](N)Cc3ccccc3)nc(-c3ccncc3)nc12

biological target: T1, Protein kinase C iota type; assay: Inhibition of recombinant human PKC-iota kinase domain expressed in Sf21 cells using FAM-PKCs pseudopeptide derived peptide substrate and 25 uM ATP by fluorescence polarization based IMAP assay

Row | IC50 [nM] | Structure (SMILES)
50 | < 100 | Cc1csc2c(NC[C@@H](N)Cc3ccccc3)nc(-c3ccncc3)nc12
51 | ≥ 10000 | Cc1ccc(CN2CCN(c3nc(-c4ccncc4)nc4sc5c(c34)CCCC5)CC2)cc1
52 | < 100 | Cc1csc2nc(-c3ccncc3)nc(N3CCNCC3)c12
53 | < 100 | C[C@H](N)CNc1nc(-c2ccncc2)nc2sc3c(c12)CCCC3
